Patent US8541460B2, “PDK-1/Akt signaling inhibitors” (The Ohio State University, priority 2003, dated 2013)

Experiments:
[1] = test system: DU-145; experiment: NCI DTP cell line screen (SRB), Prostate Cancer; format: cell-based
Protocol: (§1) Screening of compounds 70 and 71 against several cancer cell lines The human tumor cell lines of the cancer screening panel are grown in RPMI 1640 medium containing 5% fetal bovine serum and 2 mM L-glutamine. For a typical screening experiment, cells are inoculated into 96 well microtiter plates in 100 μL at plating densities ranging from 5,000 to 40,000 cells/well depending on the doubling time of individual cell lines. After cell inoculation, the microtiter plates are incubated at 37° C., 5% CO2, 95% air and 100% relative humidity for 24 h prior to addition of experimental drugs.
(§2) After 24 h, two plates of each cell line are fixed in situ with TCA, to represent a measurement of the cell population for each cell line at the time of drug addition (Tz). Experimental drugs are solubilized in dimethyl sulfoxide at 400-fold the desired final maximum test concentration and stored frozen prior to use. At the time of drug addition, an aliquot of frozen concentrate is thawed and diluted to twice the desired final maximum test concentration with complete medium containing 50 μg/ml gentamicin. Additional four, 10-fold or ½ log serial dilutions are made to provide a total of five drug concentrations plus control. Aliquots of 100 μl of these different drug dilutions are added to the appropriate microtiter wells already containing 100 μl of medium, resulting in the required final drug concentrations.
(§3) Following drug addition, the plates are incubated for an additional 48 h at 37° C., 5% CO2, 95% air, and 100% relative humidity. For adherent cells, the assay is terminated by the addition of cold TCA. Cells are fixed in situ by the gentle addition of 50 μl of cold 50% (w/v) TCA (final concentration, 10% TCA) and incubated for 60 minutes at 4° C. The supernatant is discarded, and the plates are washed five times with tap water and air dried. Sulforhodamine B (SRB) solution (100 μl) at 0.4% (w/v) in 1% acetic acid is added to each well, and plates are incubated for 10 minutes at room temperature. After staining, unbound dye is removed by washing five times with 1% acetic acid and the plates are air dried. Bound stain is subsequently solubilized with 10 mM trizma base, and the absorbance is read on an automated plate reader at a wavelength of 515 nm. For suspension cells, the methodology is the same except that the assay is terminated by fixing settled cells at the bottom of the wells by gently adding 50 μl of 80% TCA (final concentration, 16% TCA). Using the seven absorbance measurements [time zero, (Tz), control growth, (C), and test growth in the presence of drug at the five concentration levels (Ti)], the percentage growth is calculated at each of the drug concentrations levels. Percentage growth inhibition is calculated as: [(Ti−Tz)/(C−Tz)]×100 for concentrations for which Ti>/=Tz [(Ti−Tz)/Tz]×100 for concentrations for which Ti<Tz
(§4) Three dose response parameters are calculated for each experimental agent. […] The drug concentration resulting in total growth inhibition (TGI) is calculated from Ti=Tz. […] Values are calculated for each of these three parameters if the level of activity is reached; however, if the effect is not reached or is exceeded, the value for that parameter is expressed as greater or less than the maximum or minimum concentration tested.
(§5) The methods described were used to test compounds 70 and 71 on a panel of sixty cell lines under a screening service provided by the Developmental Therapeutics Program at the National Institutes of Health. Shown in FIG. 1C are 1, RPMI-8226 leukemia cells; 2; NCI-H322M non-small cell lung cancer cells; 3, HT29 colon cancer cells; 4, U251 CNS cancer cells; 5, SK-MEL-28 melanoma cancer cells; 6, SK-OV-3 ovarian cancer cells; 7, RXF 393 renal cancer cells; 8, PC-3 prostate cancer cells; 9, MDA-MB-231 breast cancer cells.

[2] = test system: PC-3; experiment: NCI DTP cell line screen (SRB), Prostate Cancer; format: cell-based
Protocol: as §1, §2, §3, §4, §5

[3] = test system: TK-10; experiment: NCI DTP cell line screen (SRB), Renal Cancer; format: cell-based
Protocol: as §1, §2, §3, §4, §5

[4] = test system: 786-0; experiment: NCI DTP cell line screen (SRB), Renal Cancer; format: cell-based
Protocol: as §1, §2, §3, §4, §5

[5] = test system: RPMI-8226; experiment: NCI DTP cell line screen (SRB), Leukemia; format: cell-based, human
Protocol: as §1, §2, §3, §4, §5

[6] = test system: K-562; experiment: NCI DTP cell line screen (SRB), Leukemia; format: cell-based
Protocol: as §1, §2, §3, §4, §5

[7] = test system: SR; experiment: NCI DTP cell line screen (SRB), Leukemia; format: cell-based
Protocol: as §1, §2, §3, §4, §5

[8] = test system: MOLT-4; experiment: NCI DTP cell line screen (SRB), Leukemia; format: cell-based
Protocol: as §1, §2, §3, §4, §5

[9] = read-out: LC50 (the source's name)

SMILES: N=C(N)Nc1ccc(-n2nc(C(F)(F)F)cc2-c2ccc3c(ccc4ccccc43)c2)cc1 [Compound 71, 4-[5-(2-Phenanthrenyl)-3-(trifluoromethyl)-1H-pyrazol-1-yl]-phenyl-guanidine]
- GI50 [1]: 1550 nM
- TGI [1]: 2.89E−06
- Mean Optical Densities ([1]; Log10 Concentration −4.0): −0.019
- Percent Growth ([1]; Log10 Concentration −4.0): −100%
- Mean Optical Densities ([1]; Log10 Concentration −5.0): −0.074
- Percent Growth ([1]; Log10 Concentration −5.0): −100%
- Mean Optical Densities ([1]; Log10 Concentration −6.0): 0.760
- Percent Growth ([1]; Log10 Concentration −6.0): 85%
- Mean Optical Densities ([1]; Log10 Concentration −7.0): 0.767
- Percent Growth ([1]; Log10 Concentration −7.0): 87%
- Mean Optical Densities ([1]; Log10 Concentration −8.0): 0.694
- Percent Growth ([1]; Log10 Concentration −8.0): 72%
- CC50 [1, 9]: 5370 nM
- GI50 [2]: 1380 nM
- TGI [2]: 2.67E−06
- Mean Optical Densities ([2]; Log10 Concentration −4.0): 0.179
- Percent Growth ([2]; Log10 Concentration −4.0): −26%
- Mean Optical Densities ([2]; Log10 Concentration −5.0): −0.022
- Percent Growth ([2]; Log10 Concentration −5.0): −100%
- Mean Optical Densities ([2]; Log10 Concentration −6.0): 0.857
- Percent Growth ([2]; Log10 Concentration −6.0): 75%
- Mean Optical Densities ([2]; Log10 Concentration −7.0): 0.846
- Percent Growth ([2]; Log10 Concentration −7.0): 73%
- Mean Optical Densities ([2]; Log10 Concentration −8.0): 0.862
- Percent Growth ([2]; Log10 Concentration −8.0): 75%
- GI50 [3]: 1320 nM
- TGI [3]: 2.59E−06
- Mean Optical Densities ([3]; Log10 Concentration −4.0): 0.245
- Percent Growth ([3]; Log10 Concentration −4.0): −64%
- Mean Optical Densities ([3]; Log10 Concentration −5.0): −0.021
- Percent Growth ([3]; Log10 Concentration −5.0): −100%
- Mean Optical Densities ([3]; Log10 Concentration −6.0): 0.998
- Percent Growth ([3]; Log10 Concentration −6.0): 71%
- Mean Optical Densities ([3]; Log10 Concentration −7.0): 1.087
- Percent Growth ([3]; Log10 Concentration −7.0): 90%
- Mean Optical Densities ([3]; Log10 Concentration −8.0): 1.032
- Percent Growth ([3]; Log10 Concentration −8.0): 78%
- CC50 [3, 9]: 5090 nM
- GI50 [4]: 1490 nM
- TGI [4]: 2.91E−06
- Mean Optical Densities ([4]; Log10 Concentration −4.0): 0.458
- Percent Growth ([4]; Log10 Concentration −4.0): −30%
- Mean Optical Densities ([4]; Log10 Concentration −5.0): 0.046
- Percent Growth ([4]; Log10 Concentration −5.0): −93%
- Mean Optical Densities ([4]; Log10 Concentration −6.0): 1.663
- Percent Growth ([4]; Log10 Concentration −6.0): 80%
- Mean Optical Densities ([4]; Log10 Concentration −7.0): 1.868
- Percent Growth ([4]; Log10 Concentration −7.0): 96%
- Mean Optical Densities ([4]; Log10 Concentration −8.0): 1.862
- Percent Growth ([4]; Log10 Concentration −8.0): 96%
- GI50 [5]: 1030 nM
- Mean Optical Densities ([5]; Log10 Concentration −4.0): 0.176
- Percent Growth ([5]; Log10 Concentration −4.0): −47%
- Mean Optical Densities ([5]; Log10 Concentration −5.0): 0.016
- Percent Growth ([5]; Log10 Concentration −5.0): −95%
- Mean Optical Densities ([5]; Log10 Concentration −6.0): 0.513
- Percent Growth ([5]; Log10 Concentration −6.0): 52%
- Mean Optical Densities ([5]; Log10 Concentration −7.0): 0.559
- Percent Growth ([5]; Log10 Concentration −7.0): 65%
- Mean Optical Densities ([5]; Log10 Concentration −8.0): 0.536
- Percent Growth ([5]; Log10 Concentration −8.0): 58%
- TGI ([5]; in M (unit assumed)): 2.25E−06
- GI50 [6]: 326 nM
- TGI [6]: 1.52E−06
- Mean Optical Densities ([6]; Log10 Concentration −4.0): 0.119
- Percent Growth ([6]; Log10 Concentration −4.0): −60%
- Mean Optical Densities ([6]; Log10 Concentration −5.0): 0.126
- Percent Growth ([6]; Log10 Concentration −5.0): −58%
- Mean Optical Densities ([6]; Log10 Concentration −6.0): 0.438
- Percent Growth ([6]; Log10 Concentration −6.0): 13%
- Mean Optical Densities ([6]; Log10 Concentration −7.0): 1.283
- Percent Growth ([6]; Log10 Concentration −7.0): 89%
- Mean Optical Densities ([6]; Log10 Concentration −8.0): 1.338
- Percent Growth ([6]; Log10 Concentration −8.0): 94%
- CC50 [6, 9]: 7770 nM
- GI50 [7]: 38.6 nM
- TGI [7]: 3.79E−07
- Mean Optical Densities ([7]; Log10 Concentration −4.0): 0.287
- Percent Growth ([7]; Log10 Concentration −4.0): −21%
- Mean Optical Densities ([7]; Log10 Concentration −5.0): 0.234
- Percent Growth ([7]; Log10 Concentration −5.0): −36%
- Mean Optical Densities ([7]; Log10 Concentration −6.0): 0.254
- Percent Growth ([7]; Log10 Concentration −6.0): −30%
- Mean Optical Densities ([7]; Log10 Concentration −7.0): 0.583
- Percent Growth ([7]; Log10 Concentration −7.0): 42%
- Mean Optical Densities ([7]; Log10 Concentration −8.0): 0.688
- Percent Growth ([7]; Log10 Concentration −8.0): 62%
- CC50 [7, 9]: > 100000 nM
- GI50 [8]: 233 nM
- TGI [8]: 1.98E−06
- Mean Optical Densities ([8]; Log10 Concentration −4.0): 0.143
- Percent Growth ([8]; Log10 Concentration −4.0): −54%
- Mean Optical Densities ([8]; Log10 Concentration −5.0): 0.143
- Percent Growth ([8]; Log10 Concentration −5.0): −54%
- Mean Optical Densities ([8]; Log10 Concentration −6.0): 0.461
- Percent Growth ([8]; Log10 Concentration −6.0): 23%
- Mean Optical Densities ([8]; Log10 Concentration −7.0): 0.736
- Percent Growth ([8]; Log10 Concentration −7.0): 66%
- Mean Optical Densities ([8]; Log10 Concentration −8.0): 0.833
- Percent Growth ([8]; Log10 Concentration −8.0): 81%
- CC50 [8, 9]: 8750 nM
